Test results taken from ChEMBL document CHEMBL1201862, “PubChem BioAssay data set” (2004).
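Compound exposure: 48 hours, 5 concentrations, 96-well plates. GI50 is the concentration that inhibits growth by half.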 Calls of active or inactive are those of the source. No stated cut-off is given here; in the data, active = GI50 up to about 1.1 µM and inactive = higher.

Columns and labels:
Experiment in all cases: DTP human tumour cell line panel, 48 h
SW-620 = system: SW-620
DU-145 = system: DU-145
PC-3 = system: PC-3
K562 = system: K562
SK-MEL-2 = system: SK-MEL-2
SNB-19 = system: SNB-19
HCT-15 = system: HCT-15
A498 = system: A498
NCI-H460 = system: NCI-H460
COLO 205 = system: COLO 205
MDA-MB-435 = system: MDA-MB-435
BT-549 = system: BT-549
KM12 = system: KM12
NCI/ADR-RES = system: NCI/ADR-RES
RXF 393 = system: RXF 393
M14 = system: M14
HCT-116 = system: HCT-116
MDA-MB-231 = system: MDA-MB-231
OVCAR-5 = system: OVCAR-5
HOP-92 = system: HOP-92

Row | SMILES | GI50 (SW-620) | GI50 (DU-145) | GI50 (PC-3) | GI50 (K562) | GI50 (SK-MEL-2) | GI50 (SNB-19) | GI50 (HCT-15) | GI50 (A498) | GI50 (NCI-H460) | GI50 (COLO 205) | GI50 (MDA-MB-435) | GI50 (BT-549) | GI50 (KM12) | GI50 (NCI/ADR-RES) | GI50 (RXF 393) | GI50 (M14) | GI50 (HCT-116) | GI50 (MDA-MB-231) | GI50 (OVCAR-5) | GI50 (HOP-92)
1 | CCOC(=O)Cc1csc(N/N=C2\C(=O)Nc3ccccc32)n1 | 48.9 µM (inactive) | 76.7 µM (inactive) | 30.1 µM (inactive) | 40.4 µM (inactive) | 52.6 µM (inactive) | 26.9 µM (inactive) | 41 µM | 27.4 µM (inactive) | 33.4 µM (inactive) | 28.6 µM (inactive) | 55.6 µM (inactive) | 32.7 µM (inactive) | 31.2 µM (inactive) | 31.8 µM (inactive) | 87.1 µM (inactive) | 41.7 µM (inactive) | 40.1 µM (inactive) | 43 µM (inactive) | > 100 µM (inactive) | 42.2 µM (inactive)
2 | CSCCC(NC(=O)OC(C)(C)C)C(=O)NCCNc1ccc(NCCNC(=O)C(CCSC)NC(=O)OC(C)(C)C)c2c1C(=O)c1ccccc1C2=O (stereo not given) | 2.23 µM (inactive) | 4.79 µM (inactive) | 5.31 µM (inactive) | 2.75 µM (inactive) | 14.2 µM (inactive) | 4.75 µM (inactive) | > 67.6 µM | 4.62 µM (inactive) | 5.85 µM (inactive) | 2.22 µM (inactive) | 2.63 µM (inactive) | 4.43 µM (inactive) | 5.77 µM (inactive) | > 74.1 µM (inactive) | 16.3 µM (inactive) | 3.85 µM (inactive) | 8.71 µM (inactive) | 2.83 µM (inactive) | 5.74 µM (inactive) | 3.93 µM (inactive)
3 | COc1ccc2c(c1)/C(=C\c1c(C)nc3n1CCS3)C(=O)N2 | 9.79 µM (inactive) | 39.1 µM (inactive) | 16.3 µM (inactive) | 10.3 µM (inactive) | 29 µM (inactive) | 33.8 µM (inactive) | 9.4 µM | 17.8 µM (inactive) | 20 µM (inactive) | 9.42 µM (inactive) | 3.12 µM (inactive) | 21.1 µM (inactive) | 6.34 µM (inactive) | 26.8 µM (inactive) | 40.7 µM (inactive) | 23 µM (inactive) | 19.2 µM (inactive) | 30.5 µM (inactive) | 42.3 µM (inactive) | 34.4 µM (inactive)
4 | O=C(Nc1c(C(F)(F)F)cc(-c2ccccc2)[nH]c1=O)N1CCOCC1 | > 100 µM (inactive) | > 100 µM (inactive) | > 100 µM (inactive) | > 100 µM (inactive) | > 100 µM (inactive) | > 100 µM (inactive) | > 100 µM | > 100 µM (inactive) | > 100 µM (inactive) | > 100 µM (inactive) | > 100 µM (inactive) | > 100 µM (inactive) | > 100 µM (inactive) | > 100 µM (inactive) | > 100 µM (inactive) | > 100 µM (inactive) | > 100 µM (inactive) | > 100 µM (inactive) | > 100 µM (inactive) | 58.9 µM (inactive)
5 | CO[C@H]1C[C@H](O[C@H]2CC[C@]3(C=O)[C@H]4CC[C@]5(C)[C@@H](C6=CC(=O)OC6)CC[C@]5(O)[C@@H]4CC[C@]3(O)C2)O[C@H](C)[C@H]1O[C@@H]1O[C@H](CO)[C@@H](O)[C@H](O)[C@H]1O | 3.16e-05 µM (active) | 6.34e-06 µM (active) | 2.06e-05 µM (active) | > 0.01 µM (active) | 8.26e-05 µM (active) | 8.93e-05 µM (active) | 3.94e-05 µM | 5.81e-05 µM (active) | 9.04e-06 µM (active) | 0.00011 µM (active) | 4.61e-05 µM (active) | 1.22e-05 µM (active) | 9.1e-05 µM (active) | 1.15e-05 µM (active) | 1.51e-05 µM (active) | 4.73e-05 µM (active) | 9.73e-06 µM (active) | 0.000173 µM (active) | 3.52e-05 µM (active) | 5.83e-05 µM (active)
